Source: patent US12077503B2, “Substituted cyclic amides and their use as herbicides” (FMC CORPORATION, priority 2015, dated 2024)
Where two headings read alike, the source gives them in different places.

Legend:
Format in all cases: in vivo
[1] = system: ducksalad (Heteranthera limosa); assay: Test B flooded paddy test; conditions: Heteranthera limosa, Flood, 250 g ai/ha
Method in brief: (§1)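 Rating scale 0–100 (visual, vs untreated controls) after a 13–15 d greenhouse period; application to the flood layer, 3 cm above soil and maintained; plants at 2-leaf stage when treated.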

[2] = system: sedge, umbrella (small-flower umbrella sedge, Cyperus difformis); assay: Test B flooded paddy test; conditions: Cyperus difformis, Flood, 250 g ai/ha
Method in brief: as §1

[3] = system: barnyardgrass (Echinochloa crus-galli); assay: Test B flooded paddy test; conditions: Echinochloa crus-galli, Flood, 250 g ai/ha
Method in brief: as §1

[4] = system: rice (Oryra sativa); assay: Test B flooded paddy test; conditions: Oryza sativa, Flood, 250 g ai/ha
Method in brief: as §1

[5] = system: blackgrass (Alopecurus myosuroides); assay: Test A postemergence; conditions: Alopecurus myosuroides, post-emergence, 240 h; for pest or weed control at 125 g/ha: 125 g ai/ha; for pest or weed control at 500 g/ha: 500 g ai/ha, visual injury, approx. 10 d
Method in brief: (§2)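 Visual injury scores from 0, no effect, to 100, complete control, were assigned versus untreated controls roughly 10 d after treatment in the greenhouse. Test chemicals, formulated with surfactant in a non-phytotoxic solvent, were applied to planted seeds as a preemergence soil spray or postemergence to one- to two-leaf plants 2 to 10 cm tall, in loam–sand soil.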

[6] = system: wheat (Triticum aestivum); assay: Test A postemergence; conditions: Triticum aestivum, post-emergence, 240 h; for plant injury at 125 g/ha: 125 g ai/ha; for plant injury at 500 g/ha: 500 g ai/ha, visual injury, approx. 10 d
Method in brief: as §2

[7] = system: giant foxtail (Setaria faberii); assay: Test A postemergence; conditions: Setaria faberi, post-emergence, 240 h; for pest or weed control at 125 g/ha: 125 g ai/ha; for pest or weed control at 500 g/ha: 500 g ai/ha, visual injury, approx. 10 d
Method in brief: as §2

[8] = system: ragweed (common ragweed, Ambrosia elatior); assay: Test A postemergence; conditions: Ambrosia artemisiifolia, post-emergence, 240 h; for pest or weed control at 125 g/ha: 125 g ai/ha; for pest or weed control at 500 g/ha: 500 g ai/ha, visual injury, approx. 10 d
Method in brief: as §2

[9] = system: Galium (catchweed bedstraw, Galium aparine); assay: Test A postemergence; conditions: Galium, post-emergence, 240 h; for pest or weed control at 125 g/ha: 125 g ai/ha; for pest or weed control at 500 g/ha: 500 g ai/ha, visual injury, approx. 10 d
Method in brief: as §2

[10] = system: Kochia (Kochia scoparia); assay: Test A postemergence; conditions: Bassia scoparia, post-emergence, 240 h; for pest or weed control at 125 g/ha: 125 g ai/ha; for pest or weed control at 500 g/ha: 500 g ai/ha, visual injury, approx. 10 d
Method in brief: as §2

[11] = system: corn (Zea mays); assay: Test A postemergence; conditions: Zea mays, post-emergence, 240 h; for plant injury at 125 g/ha / Corn plant response rating (crop injury, 0 = no effect, 100 = complete kill) at 500 g/ha: Postemergence; for plant injury at 125 g/ha: visual rating about 10 d after treatment, read-out: Corn plant response rating (0 to 100 scale); for Corn plant response rating (crop injury, 0 = no effect, 100 = complete kill) at 500 g/ha: 500 g ai/ha, visual injury, approx. 10 d
Method in brief: as §2

[12] = system: ryegrass, Italian (Italian ryegrass, Lolium multiflorum); assay: Test A postemergence; conditions: Lolium multiflorum, post-emergence, 240 h; for pest or weed control at 125 g/ha: 125 g ai/ha; for pest or weed control at 500 g/ha: 500 g ai/ha, visual injury, approx. 10 d
Method in brief: as §2

[13] = system: barnyardgrass (Echinochloa crus-galli); assay: Test A postemergence; conditions: Echinochloa crus-galli, post-emergence, 240 h; for pest or weed control at 125 g/ha: 125 g ai/ha; for pest or weed control at 500 g/ha: 500 g ai/ha, visual injury, approx. 10 d
Method in brief: as §2

[14] = system: pigweed (Amaranthus retroflexus); assay: Test A postemergence; conditions: Amaranthus retroflexus, post-emergence, 240 h; for pest or weed control at 125 g/ha: 125 g ai/ha; for pest or weed control at 500 g/ha: 500 g ai/ha, visual injury, approx. 10 d
Method in brief: as §2

[15] = Postemergence, visual rating about 10 d after treatment, read-out: Blackgrass plant response rating (0 to 100 scale)
[16] = Postemergence, 0 to 100 scale (0 no effect, 100 complete control), read-out: Plant response rating, Blackgrass
[17] = Postemergence, visual rating about 10 d after treatment, read-out: Wheat plant response rating (0 to 100 scale)
[18] = Postemergence, 0 to 100 scale (0 no effect, 100 complete control), read-out: Plant response rating, Wheat
[19] = Postemergence, visual rating about 10 d after treatment, read-out: Foxtail, Giant plant response rating (0 to 100 scale)
[20] = Postemergence, 0 to 100 scale (0 no effect, 100 complete control), read-out: Plant response rating, Foxtail, Giant
[21] = Postemergence, visual rating about 10 d after treatment, read-out: Ragweed plant response rating (0 to 100 scale)
[22] = Postemergence, 0 to 100 scale (0 no effect, 100 complete control), read-out: Plant response rating, Ragweed
[23] = Postemergence, visual rating about 10 d after treatment, read-out: Galium plant response rating (0 to 100 scale)
[24] = Postemergence, 0 to 100 scale (0 no effect, 100 complete control), read-out: Plant response rating, Galium
[25] = Postemergence, visual rating about 10 d after treatment, read-out: Kochia plant response rating (0 to 100 scale)
[26] = Postemergence, 0 to 100 scale (0 no effect, 100 complete control), read-out: Plant response rating, Kochia
[27] = 0 to 100 scale (0 no effect, 100 complete control)
[28] = Postemergence, visual rating about 10 d after treatment, read-out: Ryegrass, Italian plant response rating (0 to 100 scale)
[29] = Postemergence, 0 to 100 scale (0 no effect, 100 complete control), read-out: Plant response rating, Ryegrass, Italian
[30] = Postemergence, visual rating about 10 d after treatment, read-out: Barnyardgrass plant response rating (0 to 100 scale, 0 no effect, 100 complete control)
[31] = Postemergence, 0 to 100 scale (0 no effect, 100 complete control), read-out: Plant response rating, Barnyardgrass
[32] = Postemergence, visual rating about 10 d after treatment, read-out: Pigweed plant response rating (0 to 100 scale)
[33] = Postemergence, 0 to 100 scale (0 no effect, 100 complete control), read-out: Plant response rating, Pigweed

Structure (SMILES) | pest or weed control at 125 g/ha [5, 15] | pest or weed control at 500 g/ha [5, 16] | plant injury at 125 g/ha [6, 17] | plant injury at 500 g/ha [6, 18] | pest or weed control at 125 g/ha [7, 19] | pest or weed control at 500 g/ha [7, 20] | pest or weed control at 125 g/ha [8, 21] | pest or weed control at 500 g/ha [8, 22] | pest or weed control at 125 g/ha [9, 23] | pest or weed control at 500 g/ha [9, 24] | pest or weed control at 125 g/ha [10, 25] | pest or weed control at 500 g/ha [10, 26] | plant injury at 125 g/ha ([11]; 125 g ai/ha) | Corn plant response rating (crop injury, 0 = no effect, 100 = complete kill) at 500 g/ha [11, 27] | pest or weed control at 125 g/ha [12, 28] | pest or weed control at 500 g/ha [12, 29] | pest or weed control at 125 g/ha [13, 30] | pest or weed control at 500 g/ha [13, 31] | pest or weed control at 125 g/ha [14, 32] | pest or weed control at 500 g/ha [14, 33] | other results
O=C1NC[C@H](c2cc(C(F)(F)F)ccn2)[C@H]1C(=O)Nc1cccc(F)c1F (racemic) [Compound 1376] | 20% | 70% | 0% | 60% | 80% | 80% | 0% | 0% | 0% | 30% | 0% | 20% | 0% | 30% | 0% | 30% | 90% | 90% | 0% | 20% | pest or weed control at 250 g/ha ([1]; 360 h, visually evaluated after 13 to 15 d, read-out: Plant response rating, Ducksalad (0 to 100 scale where 0 is no effect and 100 is complete control)): 70%; pest or weed control at 250 g/ha ([2]; 360 h, visually evaluated after 13 to 15 d, read-out: Plant response rating, Sedge, Umbrella (0 to 100 scale where 0 is no effect and 100 is complete control)): 0%; pest or weed control at 250 g/ha ([3]; 360 h, visually evaluated after 13 to 15 d, read-out: Plant response rating, Barnyardgrass (0 to 100 scale where 0 is no effect and 100 is complete control)): 40%; pest or weed control at 250 g/ha ([4]; 360 h, visually evaluated after 13 to 15 d, read-out: Plant response rating, Rice (0 to 100 scale where 0 is no effect and 100 is complete control)): 0%
Cc1ccc([C@H]2CNC(=S)[C@@H]2C(=O)Nc2cccc(F)c2F)cc1C [Compound 765] |  |  |  |  |  |  |  |  |  |  |  |  |  |  |  |  |  |  |  |  | pest or weed control at 250 g/ha ([1]; scale of 0 to 100 where 0 is no effect and 100 is complete control, read-out: Ducksalad plant response rating): 100%; pest or weed control at 250 g/ha ([2]; scale of 0 to 100 where 0 is no effect and 100 is complete control, read-out: Sedge, Umbrella plant response rating): 0%; pest or weed control at 250 g/ha ([3]; scale of 0 to 100 where 0 is no effect and 100 is complete control, read-out: Barnyardgrass plant response rating): 40%; pest or weed control at 250 g/ha ([4]; scale of 0 to 100 where 0 is no effect and 100 is complete control, read-out: Rice plant response rating): 20%; pest or weed control at 125 g/ha ([5]; postemergence, visual injury after approximately 10 d, 0 to 100 scale (0 no effect, 100 complete control), read-out: Plant response rating, Blackgrass): 0%; plant injury at 125 g/ha ([6]; postemergence, visual injury after approximately 10 d, 0 to 100 scale (0 no effect, 100 complete control), read-out: Plant response rating, Wheat): 0%; pest or weed control at 125 g/ha ([7]; postemergence, visual injury after approximately 10 d, 0 to 100 scale (0 no effect, 100 complete control), read-out: Plant response rating, Foxtail, Giant): 0%; pest or weed control at 125 g/ha ([8]; postemergence, visual injury after approximately 10 d, 0 to 100 scale (0 no effect, 100 complete control), read-out: Plant response rating, Ragweed): 0%; pest or weed control at 125 g/ha ([9]; postemergence, visual injury after approximately 10 d, 0 to 100 scale (0 no effect, 100 complete control), read-out: Plant response rating, Galium): 0%; pest or weed control at 125 g/ha ([10]; postemergence, visual injury after approximately 10 d, 0 to 100 scale (0 no effect, 100 complete control), read-out: Plant response rating, Kochia): 0%; Corn plant response rating (crop injury, 0 = no effect, 100 = complete kill) at 125 g/ha ([11]; 125 g ai/ha, postemergence, visual injury after approximately 10 d, 0 to 100 scale (0 no effect, 100 complete control)): 0%; pest or weed control at 125 g/ha ([12]; postemergence, visual injury after approximately 10 d, 0 to 100 scale (0 no effect, 100 complete control), read-out: Plant response rating, Ryegrass, Italian): 40%; pest or weed control at 125 g/ha ([13]; postemergence, visual injury after approximately 10 d, 0 to 100 scale (0 no effect, 100 complete control), read-out: Plant response rating, Barnyardgrass): 70%; pest or weed control at 125 g/ha ([14]; postemergence, visual injury after approximately 10 d, 0 to 100 scale (0 no effect, 100 complete control), read-out: Plant response rating, Pigweed): 0%
COc1cc([C@H]2CN(C)C(=O)[C@@H]2C(=O)Nc2cccc(F)c2C)ccc1F [Compound 1300] | 30% | 50% | 0% | 50% | 80% | 90% | 0% | 0% | 20% | 40% | 0% | 0% | 20% | 60% | 0% | 30% | 80% | 90% | 0% | 0% | pest or weed control at 250 g/ha ([1]; 0 to 100 scale where 0 is no effect and 100 is complete control, read-out: Ducksalad plant response rating): 80%; pest or weed control at 250 g/ha ([2]; 0 to 100 scale where 0 is no effect and 100 is complete control, read-out: Sedge, Umbrella plant response rating): 0%; pest or weed control at 250 g/ha ([3]; 0 to 100 scale where 0 is no effect and 100 is complete control, read-out: Barnyardgrass plant response rating): 65%; pest or weed control at 250 g/ha ([4]; 0 to 100 scale where 0 is no effect and 100 is complete control, read-out: Rice plant response rating): 25%
